What was measured:
[1] = tested on: Wistar rats; experiment: Muscle mass in the TNF-α-induced myatrophy animal model; format: in vivo; conditions: once daily for eight weeks, extract 500 mg/kg, flavones 300 mg/kg; for Calf muscle weight: TNF-α 100 ng/g for two weeks, TNF-α control 437 mg; for muscle weight compared to the control levels: TNF-α-induced myatrophy, p<0.01
Experimental: Five-week-old Wistar rats were acclimated for one week and myatrophy was induced by supplying TNF-α at the dose of 100 ng/g for two weeks. Afterwards, rats were randomly divided according to body weight into a total of 4 groups, each consisting of 8 rats. Each of the Kaempferia parviflora extract and flavone compounds was suspended in 0.25% carboxymethylcellulose and administered once daily for eight weeks at the dose of 500 mg/kg body weight for the Kaempferia parviflora extract, 300 mg/kg body weight for each of 5,7-dimethoxyflavone, 5,7,4′-trimethoxyflavone and 3,5,7,3′,4′-pentamethoxyflavone. The control group was administered with the same amount of 0.25% carboxymethylcellulose only as well as TNF-α.
After eight weeks of treatments, calf muscles were dissected out and weighed using microbalance (Mettler PE160, USA).

[2] = tested on: atrogin-1; experiment: RT-PCR of atrogin-1 mRNA in differentiated L6 cells treated with TNF-α; format: cell-based; conditions: TNF-α 24 hours, then 5,7-dimethoxyflavone 1 or 5 μM, normalized by β-actin, FIG. 1
Experimental: (§1) Muscle cell-line L6 myoblast (American Type Culture Collection, Manassas, Va., USA) was cultured in DMEM (10% FBS, 100 U/mL penicillin, 100 µg/mL streptomycin). When the cell density reached approximately 80˜85%, differentiation was induced for six days by replacing the culture medium with DMEM growth medium supplemented with 2% FBS for further experiments. In order to evoke muscle reduction in the differentiated L6 cells, cells were treated with TNF-α for 24 hours followed by the treatment with 5,7-dimethoxyflavone prepared in Example 2-1 at different concentrations (1 or 5 μM). RT-PCR experiments were performed to examine the expression levels of atrogin-1 and MuRF1, major ligases involved in protein catabolism in the muscles. Total RNA was obtained from the differentiated cells using Trizol (Invitrogen, Carlsbad, Calif., USA) and subjected to reverse transcription as follows. Total RNA isolated as above was reverse-transcribed using reverse transcriptases. The following primers were used for RT-PCR experiments.
(§2) Relative levels of mRNA for each gene was normalized by the value of β-actin.

[3] = tested on: MuRF1; experiment: RT-PCR of MuRF1 mRNA in differentiated L6 cells treated with TNF-α; format: cell-based; conditions: TNF-α 24 hours, then 5,7-dimethoxyflavone 1 or 5 μM, normalized by β-actin, FIG. 1
Experimental: as §1, §2

[4] = tested on: myogenin; experiment: RT-PCR of myogenin mRNA in differentiated L6 cells; format: cell-based; conditions: 5,7-dimethoxyflavone 1 or 5 μM (FIG. 2), extract 1 or 10 μg/ml (FIG. 4), normalized by β-actin
[5] = tested on: myoD; experiment: RT-PCR of myoD mRNA in differentiated L6 cells; format: cell-based; conditions: 5,7-dimethoxyflavone 1 or 5 μM (FIG. 2), extract 1 or 10 μg/ml (FIG. 4), normalized by β-actin
[6] = tested on: PI3K; experiment: Western blot of PI3K protein in L6 cells; format: cell-based; conditions: 5,7-dimethoxyflavone 1 or 5 μM (FIG. 3), extract 1 or 10 μg/ml (FIG. 5)
Experimental: as §1
(§3) L6 cells were treated in the same manner as Experimental example 1, and were lysed with RIPA buffered solution containing a proteinase inhibitor cocktail. […] Protein bands were visualized using ECL western blotting detected reagents (Amersham, Tokyo, Japan). […]

[7] = tested on: p-Akt; experiment: Western blot of p-Akt protein in L6 cells; format: cell-based; conditions: 5,7-dimethoxyflavone 1 or 5 μM (FIG. 3), extract 1 or 10 μg/ml (FIG. 5)
Experimental: as §1, §3

[8] = tested on: p-mTOR; experiment: Western blot of p-mTOR protein in L6 cells; format: cell-based; conditions: 5,7-dimethoxyflavone 1 or 5 μM (FIG. 3), extract 1 or 10 μg/ml (FIG. 5)
Experimental: as §1, §3

Structure (SMILES)	Calf muscle weight [1] [mg]	muscle weight compared to the control levels [1] [%]	mRNA level of atrogin-1 [2]	mRNA level of MuRF1 [3]	mRNA level of myogenin [4]	mRNA level of myoD [5]	protein level of PI3K [6]	protein level of p-AKT [7]	protein level of p-mTOR [8]
COc1ccc(-c2cc(=O)c3c(OC)cc(OC)cc3o2)cc1 [5,7,4′-trimethoxyflavone]	519	118							
COc1cc(OC)c2c(=O)c(OC)c(-c3ccc(OC)c(OC)c3)oc2c1 [3,5,7,3′,4′-pentamethoxyflavone]	528	120							
COc1cc(OC)c2c(=O)cc(-c3ccccc3)oc2c1 [5,7-dimethoxyflavone]	551	126	reduces	reduces	increases	increases	upregulate	upregulate	upregulate
